Read-outs that look alike come from different tables or passages of the source.
How the values were obtained:
[1] = test system: IFN-α production in human PBMCs; experiment: Induction of IFN-α in human PBMCs (ELISA); type: cell-based; conditions: PBMC, 24 h, read-out: PBMC assay IFNa EC50
Method: In this example, the induction activity of the compounds of the present application on human PBMCs for TNF-α and IFN-α production was assessed in human PBMCs (human peripheral blood mononuclear cells). The human PBMCs were purchased from Shanghai Saily Biotechnology Co., Ltd. (Cat. No. XFB—HP100B). PBMC cells were treated with the compounds. The compounds of the present application are diluted in DMSO, for example, to about 15 mM. The reference compound was added to the plates in sequence after diluted to 5 mg/mL. The compounds were serially 3- or 4-fold diluted to 8 concentrations and added to plates in duplicate (Table 2-1 for serial 3-fold dilutions and Table 2-2 for serial 4-fold dilutions). For the negative control wells, DMSO was added at 0.4 μL/well, and a 5 mg/mL reference compound solution was added to the positive control wells at 0.4 μL/well. The final concentration of DMSO was 0.2%. Frozen human PBMCs in cryopreservation tubes were quickly thawed in a 37° C. water bath and transferred into 50-mL centrifuge tubes. Prewarmed RPMI1640 medium was gradually added and the mixture was well mixed and centrifuged for 15 min before the supernatant was discarded. The cells were resuspended in a culture medium and counted. The cell suspension was adjusted to 2.5×10^6 cells/mL with the culture medium. Diluted cells were added at 200 μL/500,000 cells/well in 96-well plates containing the compounds. The cell plates were incubated at 37° C./5% CO2 for 24 h.
The plate was washed 4 times, then the detection antibody was added. […] The plate was washed 4 additional times, then the enzyme was added. […] Termination of reaction: The reaction was terminated by quickly adding the stop solution at 100 μL/well. Plate reading: The reading at wavelength 450 nm was detected by an M2e instrument within 10 min after the termination.
Compound activity data analysis: The OD450 values were converted to TNF-α and IFN-α contents by GraphPad Prism software analysis and fitted to give dose-response curves of the compounds. The EC50 values for the compounds were calculated, where the Emax values are the maximal values for TNF-α and IFN-α.

[2] = biological target: T1, hTLR8 (human Toll-like receptor 8) (Homo sapiens, UniProt Q9NR97); experiment: HEK-Blue hTLR8 reporter assay (QUANTI-Blue, OD650); type: cell-based; conditions: HEK-Blue hTLR8 cells, 24 h, read-out: Reporter assay TLR8 EC50
T1 construct: host or cells: HEK-Blue hTLR8 (HEK293-derived reporter cells)
T1 sequence (Q9NR97 27-1041): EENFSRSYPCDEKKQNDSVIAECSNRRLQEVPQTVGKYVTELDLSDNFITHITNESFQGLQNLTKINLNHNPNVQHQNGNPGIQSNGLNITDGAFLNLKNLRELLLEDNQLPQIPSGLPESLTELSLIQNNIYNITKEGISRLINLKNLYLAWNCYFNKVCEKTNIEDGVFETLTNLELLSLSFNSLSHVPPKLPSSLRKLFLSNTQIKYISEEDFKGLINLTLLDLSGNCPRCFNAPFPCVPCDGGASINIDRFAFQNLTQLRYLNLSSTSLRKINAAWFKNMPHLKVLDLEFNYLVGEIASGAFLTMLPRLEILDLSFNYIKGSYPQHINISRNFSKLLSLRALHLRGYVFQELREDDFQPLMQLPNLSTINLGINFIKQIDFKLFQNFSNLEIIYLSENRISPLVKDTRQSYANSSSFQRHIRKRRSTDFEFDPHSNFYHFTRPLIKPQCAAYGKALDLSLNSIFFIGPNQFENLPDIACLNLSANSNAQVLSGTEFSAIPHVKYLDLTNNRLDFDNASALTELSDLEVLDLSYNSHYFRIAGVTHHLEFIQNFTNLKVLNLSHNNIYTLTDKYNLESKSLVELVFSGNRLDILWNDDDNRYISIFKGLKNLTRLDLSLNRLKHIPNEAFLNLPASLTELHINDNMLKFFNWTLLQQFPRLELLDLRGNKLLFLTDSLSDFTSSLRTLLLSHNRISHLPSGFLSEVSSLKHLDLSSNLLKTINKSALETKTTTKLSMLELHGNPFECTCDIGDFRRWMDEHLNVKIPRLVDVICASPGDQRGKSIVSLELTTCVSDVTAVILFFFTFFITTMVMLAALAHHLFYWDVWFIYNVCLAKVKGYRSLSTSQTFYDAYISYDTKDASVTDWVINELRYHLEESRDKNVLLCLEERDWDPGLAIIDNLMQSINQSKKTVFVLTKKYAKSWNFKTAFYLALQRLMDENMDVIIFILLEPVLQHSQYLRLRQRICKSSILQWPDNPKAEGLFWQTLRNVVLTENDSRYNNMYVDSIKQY
Method: In this example, the agonistic activity of the compounds of the present application on hTLR7 (human Toll-like receptor 7) and hTLR8 (human Toll-like receptor 8) was assessed; the induction activity of the compounds on human PBMCs for TNF-α and IFN-α production was assessed in human PBMCs (human peripheral blood mononuclear cells).
All compounds were formulated in DMSO into 30 mM stock solutions and preserved at 4° C. The reference compound ([…], Cat. No. tlrl-r848-5) was purchased from InvivoGen and formulated into a 5 mg/mL stock solution in DMSO and preserved in a freezer at −20° C. HEK-Blue hTLR7 and HEK-Blue hTLR8 cell lines were purchased from InvivoGen, and human PBMCs were purchased from Shanghai Saily Biotechnology Co., Ltd. (Cat. No. XFB—HP100B).
The major instruments used in this study were multifunctional microplate reader Flexstation III (Molecular Device), Envision (Perkin Elmer), M2e (Molecular Device), and Echo555 (Labcyte). 2.1 Agonistic activity of compounds on hTLR7 (human Toll-like receptor 7) and hTLR8 (human Toll-like receptor 8)
Compound dilution: The compounds of the present application are diluted in DMSO, for example, to about 15 mM. The reference compound was added to the plates in sequence after dilution. The compounds were serially 3-fold diluted to 10 concentrations and added to 96-well plates in duplicate.
For the negative control wells, DMSO was added at 0.2 μL/well, and the reference compound was added to the positive control wells. The final concentration of DMSO was 0.2%.
Cell plating: When an 80% confluence of HEK Blue hTLR7&8 cells in the culture flask was observed under a microscope, the culture medium was discarded, 10 mL of detection medium was added, and the cells were separated by pipetting. The cells were counted on a cytometer and diluted to 500,000 cells/mL. The cells were plated at 100 μL/50,000 cells/well in the 96-well plates containing the compounds. The compounds and cells were co-incubated at 37° C. in a 5% CO2 incubator for 24 hours.
Compound activity detection: 20 μL of cell supernatant was taken from each well and added to a plate containing QUANTI-Blue™ reagent at 180 μL/well. The plate was incubated at 37° C. for 1 hour, and the absorbance at 650 nm (OD650) was measured on the multifunctional microplate reader Flexstation III.
Compound activity data analysis: The OD650 values were analyzed by GraphPad Prism software and fitted to give dose-response curves of the compounds. The EC50 values of compounds were calculated.

[3] = serial 4-fold dilutions, class symbols

## CCCN(OCc1ccc(N)cc1)C(=O)C1=Cc2ccc(C(=O)Nc3cccc(CN)c3)cc2N=C(N)C1 [Compound 86]
[1]; [3]
  EC50: 50 to 500 nM
[2]; class symbols
  EC50: ≤ 10 nM

## CCCN(OCc1ccc(N)cc1)C(=O)C1=Cc2ccc(-c3cncc(C(=O)O)c3)cc2N=C(N)C1 [Compound 32]
[1]; [3]
  EC50: 50 to 500 nM
[2]; class symbols
  EC50: 10 to 100 nM

## CCCN(OCc1ccc(N)cc1)C(=O)C1=Cc2ncc(-c3cncc(CO)c3)cc2N=C(N)C1 [Compound 61]
[1]; [3]
  EC50: 10 to 50 nM
[2]; class symbols
  EC50: ≤ 10 nM

## CCCN(OCc1ccc(N)cc1)C(=O)C1=Cc2ccc(-c3cncc(S(=O)(=O)N4CCNCC4)c3)cc2N=C(N)C1 [Compound 69]
[1]; [3]
  EC50: 50 to 500 nM
[2]; class symbols
  EC50: ≤ 10 nM

## CCCN(OCc1ccc(N)cc1)C(=O)C1=Cc2ccc(C(=O)N[C@@H](C)c3ccccc3)cc2N=C(N)C1 [Compound 77]
[1]; [3]
  EC50: 10 to 50 nM
[2]; class symbols
  EC50: ≤ 10 nM

## CCCN(OCc1ccc(N)cc1)C(=O)C1=Cc2ccc(-c3cnc4c(c3)C(=O)OC4)nc2N=C(N)C1 [Compound 63]
[1]; [3]
  EC50: 10 to 50 nM
[2]; class symbols
  EC50: ≤ 10 nM

## CCCN(OCc1ccc(N)cc1)C(=O)C1=Cc2ccc(-c3cncc(S(C)(=O)=O)c3)cc2N=C(N)C1 [Compound 56]
[1]; serial 3-fold dilutions
  EC50: 28.5 nM
[2]
  EC50: < 1.5 nM

## CCCN(OCc1ccc(N)cc1)C(=O)C1=Cc2ccc(-c3cccc(S(=O)(=O)N4CCNCC4)c3)cc2N=C(N)C1 [Compound 67]
[1]; [3]
  EC50: > 500 nM
[2]; class symbols
  EC50: ≤ 10 nM

## CCCN(OCc1ccc(N)cc1)C(=O)C1=Cc2ccc(-c3cncc(CN)c3)cc2N=C(N)C1 [Compound 54]
[1]; serial 3-fold dilutions
  EC50: 5.35 nM
[2]
  EC50: < 1.5 nM

## CCCN(OCc1ccc(N)cc1Cl)C(=O)C1=Cc2ncc(-c3cncc(CO)c3)cc2N=C(N)C1 [Compound 59]
[1]; [3]
  EC50: 50 to 500 nM
[2]; class symbols
  EC50: ≤ 10 nM

## CCCN(OCc1ccc(N)cc1)C(=O)C1=Cc2ccc(-c3cccc(S(N)(=O)=O)c3)cc2N=C(N)C1 [Compound 35]
[1]; serial 3-fold dilutions
  EC50: 2.95 nM
[2]
  EC50: < 1.5 nM

## CCCN(OCc1ccc(N)cc1)C(=O)C1=Cc2ccc(C(=O)N3CCN(c4ccccc4)CC3)cc2N=C(N)C1 [Compound 97]
[1]; [3]
  EC50: > 500 nM
[2]; class symbols
  EC50: ≤ 10 nM

## CCCN(OCc1ccc(N)cc1)C(=O)C1=Cc2ccc(C(=O)NC(C)(C)c3ccccc3)cc2N=C(N)C1 [Compound 76]
[1]; [3]
  EC50: 10 to 50 nM
[2]; class symbols
  EC50: ≤ 10 nM

## CCCN(OCc1ccc(N)cc1)C(=O)C1=Cc2ccc(-c3ccc(C(=O)N4CC[C@@H](O)C4)cc3)cc2N=C(N)C1 [Compound 42]
[1]; serial 3-fold dilutions
  EC50: 48.3 nM
[1]; [3]
  EC50: > 500 nM
[2]; class symbols
  EC50: 10 to 100 nM

## CCCN(OCc1ccc(N)cc1)C(=O)C1=Cc2ccc(-c3cncc([S+](C)[O-])c3)cc2N=C(N)C1 (stereo not shown) [Compound 73]
[1]; [3]
  EC50: ≤ 10 nM
[2]; class symbols
  EC50: ≤ 10 nM

## CCCN(OCc1ccc(N)cc1)C(=O)C1=Cc2ccc(-c3cncc(S(=O)(=O)N4CCC(O)CC4)c3)cc2N=C(N)C1 [Compound 71]
[1]; [3]
  EC50: 10 to 50 nM
[2]; class symbols
  EC50: ≤ 10 nM

## CCCN(OCc1ccc(N)cc1)C(=O)C1=Cc2ccc(-c3cccc(S(=O)(=O)N4CCOCC4)c3)cc2N=C(N)C1 [Compound 68]
[1]; [3]
  EC50: 10 to 50 nM
[2]; class symbols
  EC50: ≤ 10 nM

## CCCN(OCc1ccc(N)cc1)C(=O)C1=Cc2ccc(-c3cncc(S(=O)(=O)NCCO)c3)cc2N=C(N)C1 [Compound 70]
[1]; [3]
  EC50: 10 to 50 nM
[2]; class symbols
  EC50: ≤ 10 nM

## CCCN(OCc1ccc(N)cc1)C(=O)C1=Cc2ccc(C(=O)N3CC(CO)C3)cc2N=C(N)C1 [Compound 37]
[1]; [3]
  EC50: > 500 nM
[2]; class symbols
  EC50: 10 to 100 nM

## CCCN(OCc1ccc(N)cc1OC)C(=O)C1=Cc2ncc(-c3cncc(CO)c3)cc2N=C(N)C1 [Compound 60]
[1]; [3]
  EC50: 50 to 500 nM
[2]; class symbols
  EC50: ≤ 10 nM

## CCCN(OCc1ccc(N)cc1)C(=O)C1=Cc2ccc(C(=O)Nc3ncco3)cc2N=C(N)C1 [Compound 87]
[1]; [3]
  EC50: 50 to 500 nM
[2]; class symbols
  EC50: ≤ 10 nM

From patent US20250059141A1, “TLR MODULATOR AND USE THEREOF” (DUALITY BIOLOGICS (SUZHOU) CO., LTD., priority 2021, published 2025)
